The values that follow come from PubChem BioAssay (NCI).

Several values for one entry are separate records, joined by “and”; a condition that tells them apart may be missing. Identical values can stand only once.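 1) Cells in 96-well plates. 2) Compound, 48 h, 5 concentrations. 3) Linear interpolation between surrounding doses. 4) Unreached endpoint = highest concentration. GI50: concentration for 50% inhibition of growth. Definition used: TGI = concentration required for complete inhibition of growth.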

Some test systems named below: TK-10 renal; SNB-78 CNS; HCT-15 colon; HOP-92 NSCLC; A549 NSCLC; SK-MEL-28 melanoma; SK-OV-3 ovarian; DMS 273 small cell lung; SW-620 colon; ACHN renal.
Assay in all cases: NCI anticancer screen, dose series, 48 h

For `O/N=C1/C(=C/c2ccccc2)CCCC1C(NO)c1ccccc1` (stereo not drawn), the TGI in the assay on TK-10 renal, in the assay on SNB-78 CNS, in the assay with HCT-15 colon, in the assay with HOP-92 NSCLC, in the assay with A549 NSCLC and in the assay on SK-MEL-28 melanoma was over 100 µM each time. In addition, the TGI with SK-OV-3 ovarian, with DMS 273 small cell lung, in the assay on SW-620 colon and in the assay on ACHN renal was over 100 µM throughout.
In the case of `O=C1c2c(O)cccc2C(C(=O)CCCC(=O)C2c3cccc(O)c3C(=O)c3c(O)cccc32)c2cccc(O)c21`, the TGI was found to be 1.67 µM in the assay with TK-10 renal; 0.785 µM in the assay with SNB-78 CNS; 1.38 µM in the assay with HCT-15 colon; 1 µM in the assay on HOP-92 NSCLC; 1.64 µM in the assay with A549 NSCLC; 4.53 µM with SK-MEL-28 melanoma. Further, the TGI turned out to be 1.05 µM with SK-OV-3 ovarian, 1.26 µM with DMS 273 small cell lung, 14.3 µM with SW-620 colon and 1.02 µM with ACHN renal.
On to `C[n+]1ccc2[nH]c3ccccc3c2c1`, for which the TGI in the assay with TK-10 renal, with SNB-78 CNS, in the assay with HCT-15 colon, in the assay with HOP-92 NSCLC, in the assay with A549 NSCLC and with SK-MEL-28 melanoma was over 100 µM in each case. For the same molecule, the TGI in the assay on SK-OV-3 ovarian, in the assay on DMS 273 small cell lung, with SW-620 colon and with ACHN renal was over 100 µM in each case.
In the case of `CN(C(=O)C1CC1)C1C2CN3CCC(O2)C13` (stereo not drawn), the TGI in the assay on TK-10 renal, in the assay on SNB-78 CNS, in the assay with HCT-15 colon, in the assay with HOP-92 NSCLC, with A549 NSCLC and with SK-MEL-28 melanoma was over 100 µM throughout. Further, the TGI with SK-OV-3 ovarian, in the assay with DMS 273 small cell lung, in the assay with SW-620 colon and with ACHN renal was over 100 µM in each case.
In the case of `COc1ccc(CC(C#N)c2cc(OC)c(OC)c(OC)c2)cc1` (stereo not drawn), the TGI with TK-10 renal is over 100 µM; in the assay on SNB-78 CNS it was over 100 µM; with HCT-15 colon it was 11 µM; with HOP-92 NSCLC it was 16.7 µM; in the assay with A549 NSCLC it was over 100 µM; in the assay on SK-MEL-28 melanoma it was over 100 µM. Moreover, the TGI is 0.405 µM in the assay with DMS 273 small cell lung, over 100 µM in the assay on SW-620 colon and over 91.6 µM in the assay on ACHN renal.
Turning to `NC(=O)N/N=C1/CCCC/C1=C\c1ccccc1`, the TGI in the assay on TK-10 renal, with SNB-78 CNS, with HCT-15 colon, in the assay on HOP-92 NSCLC, with A549 NSCLC and in the assay on SK-MEL-28 melanoma was over 100 µM throughout. For the same molecule, the TGI in the assay on SK-OV-3 ovarian, in the assay on DMS 273 small cell lung, with SW-620 colon and in the assay with ACHN renal was over 100 µM each time.
For the molecule `Cn1c(=O)c2[nH]cnc2n(CC(=O)O)c1=O`, the TGI in the assay on TK-10 renal, in the assay with SNB-78 CNS, in the assay on HCT-15 colon, in the assay on HOP-92 NSCLC, in the assay with A549 NSCLC and in the assay on SK-MEL-28 melanoma was over 100 µM throughout. Moreover, the TGI in the assay on SK-OV-3 ovarian, in the assay on DMS 273 small cell lung, with SW-620 colon and in the assay with ACHN renal was over 100 µM throughout.
For `CC(=O)NNc1nc(C)c(C(/C=C/c2ccc(Cl)cc2)=N/NC(=S)NN)s1`, the TGI in the assay with TK-10 renal, in the assay on SNB-78 CNS, in the assay on HCT-15 colon, in the assay with HOP-92 NSCLC, in the assay on A549 NSCLC and in the assay with SK-MEL-28 melanoma was over 100 µM throughout. Also, the TGI in the assay on SK-OV-3 ovarian, with DMS 273 small cell lung, in the assay on SW-620 colon and in the assay on ACHN renal was over 100 µM throughout.
For the molecule `CCCCCCCCCCCCOC(=S)NC`, the TGI in the assay on TK-10 renal was 25.4 µM; in the assay on SNB-78 CNS, 61.8 µM; with HCT-15 colon it was 32.5 µM; in the assay with HOP-92 NSCLC it was 31.5 µM; in the assay with SK-MEL-28 melanoma it was 44 µM; in the assay with SK-OV-3 ovarian, 58 µM. The TGI is 34.4 µM with DMS 273 small cell lung, 32.6 µM in the assay on SW-620 colon and 35.2 µM in the assay with ACHN renal.
As to `COc1cc(CCC(=O)NS(=O)(=O)c2ccccc2)cc(OC)c1OC`, the TGI in the assay on TK-10 renal, with SNB-78 CNS, in the assay with HOP-92 NSCLC, in the assay with A549 NSCLC, in the assay with SK-MEL-28 melanoma and in the assay on SK-OV-3 ovarian was over 100 µM each time. For the same molecule, the TGI in the assay on DMS 273 small cell lung, in the assay on SW-620 colon and with ACHN renal was over 100 µM in each case.
Turning to `c1ccc([P+](CCC[P+](c2ccccc2)(c2ccccc2)c2ccccc2)(c2ccccc2)c2ccccc2)cc1`, the TGI in the assay on TK-10 renal was over 100 µM; in the assay with SNB-78 CNS, over 100 µM; in the assay on HCT-15 colon it was over 100 µM; with HOP-92 NSCLC, 82.2 µM; in the assay with A549 NSCLC, over 100 µM; in the assay with SK-MEL-28 melanoma, over 100 µM. The TGI in the assay with SK-OV-3 ovarian is over 100 µM; with DMS 273 small cell lung, 47.9 µM; in the assay on SW-620 colon, over 100 µM; in the assay on ACHN renal, over 100 µM. Moreover, the GI50 is over 100 µM in the assay with HCT-15 colon; 14.5 µM in the assay on A549 NSCLC; 11.2 µM in the assay with SK-MEL-28 melanoma; 69.1 µM in the assay on SK-OV-3 ovarian; 15 µM in the assay on SW-620 colon.
For `CC(=O)OC1C/C(C)=C/[C@H](O)CC(C)/C=C/[C@@]2(C)CCC(C(C)(C)O)C12` (stereo partly drawn), the TGI with TK-10 renal, in the assay on SNB-78 CNS, in the assay on HCT-15 colon, in the assay with HOP-92 NSCLC, with A549 NSCLC and in the assay with SK-MEL-28 melanoma was over 100 µM throughout. Besides, the TGI in the assay with SK-OV-3 ovarian, in the assay with DMS 273 small cell lung, in the assay with SW-620 colon and in the assay on ACHN renal was over 100 µM throughout.
In the case of `COC(=O)C(C(=O)C(=O)Nc1ccc(C)cc1C)c1nc2ccc([N+](=O)[O-])cc2[nH]c1=O` (stereo not drawn), the TGI with TK-10 renal, in the assay on SNB-78 CNS, in the assay on HCT-15 colon, in the assay with HOP-92 NSCLC, with A549 NSCLC and in the assay with SK-MEL-28 melanoma was over 100 µM throughout. Further, the TGI with SK-OV-3 ovarian, with DMS 273 small cell lung, in the assay with SW-620 colon and with ACHN renal was over 100 µM in each case.
For `COC(=O)NN=C1C(C)(C)C(=NNC(=O)OC)C1(C)C`, the TGI with TK-10 renal, in the assay with SNB-78 CNS, with HCT-15 colon, with HOP-92 NSCLC, with A549 NSCLC and in the assay on SK-MEL-28 melanoma was over 100 µM in each case. Moreover, the TGI in the assay with SK-OV-3 ovarian, in the assay with DMS 273 small cell lung, with SW-620 colon and in the assay with ACHN renal was over 100 µM throughout.
With `CCCCc1oc2ccccc2c1C(=O)c1cc(I)c(OCCN(CC)CC)c(I)c1`, the GI50 in the assay on TK-10 renal is 5.12 µM; in the assay on HCT-15 colon, 2.06 µM; in the assay with HOP-92 NSCLC, 0.625 µM; in the assay on A549 NSCLC, 3.72 µM; in the assay on SK-MEL-28 melanoma, 1.91 µM; with SK-OV-3 ovarian, 2.69 µM. In addition, the GI50 with SW-620 colon is 1.76 µM; in the assay with ACHN renal it was 4.14 µM. In addition, the TGI in the assay on TK-10 renal was 17.8 µM; in the assay with SNB-78 CNS, 25 µM; with HCT-15 colon it was 4.68 µM and 8.21 µM; in the assay with HOP-92 NSCLC, 2.46 µM and 10.3 µM; with A549 NSCLC it was 15.8 µM and 70.3 µM; in the assay on SK-MEL-28 melanoma, 4 µM and 10.1 µM. The TGI with SK-OV-3 ovarian is 6.41 µM and 20.1 µM; with DMS 273 small cell lung it was 7.74 µM; in the assay with SW-620 colon, 4.13 µM and 9.18 µM; in the assay on ACHN renal, 15.6 µM.
Consider `CC(C)(C)[Si](Nc1ccccc1)(c1ccccc1)c1ccccc1`, for which the TGI was found to be 28 µM in the assay on TK-10 renal; 30.4 µM in the assay with SNB-78 CNS; 28.4 µM in the assay with HCT-15 colon; 28.3 µM in the assay with HOP-92 NSCLC; 28.2 µM in the assay on A549 NSCLC; 32 µM in the assay on SK-MEL-28 melanoma. For the same molecule, the TGI is 30.9 µM with SK-OV-3 ovarian, 27.3 µM in the assay on DMS 273 small cell lung, 33.6 µM in the assay on SW-620 colon and 30.1 µM in the assay on ACHN renal.
For the molecule `CCCCCCCCCCCCCCCCCCOCC1(COP(=O)([O-])OCC[N+](C)(C)C)CCCO1` (stereo not drawn), the TGI in the assay with TK-10 renal worked out at 3.54 µM; in the assay with SNB-78 CNS it was 29.5 µM; in the assay with HOP-92 NSCLC, 6.09 µM; in the assay on A549 NSCLC, 20.6 µM; in the assay on SK-MEL-28 melanoma, 32.2 µM; in the assay on SK-OV-3 ovarian, 27.7 µM. The TGI with DMS 273 small cell lung was 3.13 µM; in the assay with ACHN renal it was 19.4 µM.
Take `O=C(Cc1nc2ccccc2s1)C(=O)Nc1ccc(Cl)cc1Cl`: the TGI in the assay on TK-10 renal, in the assay with SNB-78 CNS, with HCT-15 colon, in the assay on HOP-92 NSCLC, in the assay on A549 NSCLC and in the assay with SK-MEL-28 melanoma was over 100 µM in each case. The TGI in the assay with SK-OV-3 ovarian, with DMS 273 small cell lung, with SW-620 colon and in the assay on ACHN renal was over 100 µM throughout.
Regarding `CC(=O)Oc1cc(OC(C)=O)c2cc3c(cc2c1OC(C)=O)C(=O)C1(CCCC1)C3=O`, the TGI in the assay on TK-10 renal is 31.3 µM; with SNB-78 CNS, 50 µM; with HCT-15 colon it was 39.3 µM; in the assay on HOP-92 NSCLC it was 28.6 µM; in the assay on A549 NSCLC, 40.4 µM; with SK-MEL-28 melanoma it was 31.7 µM. Moreover, the TGI with SK-OV-3 ovarian came to 31.4 µM; in the assay with DMS 273 small cell lung it was 35.8 µM; in the assay with SW-620 colon it was 39.4 µM; in the assay with ACHN renal, 31.5 µM.
Regarding `O=C(Nc1ccccc1)OCc1nc2c([nH]1)C(=O)C=CC2=O`, the TGI came to 27 µM in the assay with TK-10 renal; 45.3 µM in the assay on SNB-78 CNS; 38 µM with HCT-15 colon; 45.1 µM in the assay with HOP-92 NSCLC; 31.9 µM in the assay with A549 NSCLC; 30.5 µM in the assay with SK-MEL-28 melanoma. In addition, the TGI in the assay with SK-OV-3 ovarian was 29.3 µM; with DMS 273 small cell lung it was 42 µM; in the assay with SW-620 colon, 8.79 µM; with ACHN renal it was 25.2 µM.
